Assay results from EPA's ToxRefDB 2.

Experiments:
rat [1] = conditions: Combined chronic toxicity/carcinogenicity, fischer, Oral, Gavage/Intubation, dose end: 103 week, group: systemic
mouse = conditions: Combined chronic toxicity/carcinogenicity, b6c3f1, Oral, Gavage/Intubation, dose end: 103 week, group: systemic
rat [2] = conditions: Prenatal developmental toxicity study; sprague dawley; Oral; Gavage/Intubation; dose end: 19 GD; group: maternal; systemic / in life observation / body weight / body weight gain + systemic / in life observation / food consumption / food consumption + …
rat [3] = conditions: Peri- and post-natal toxicity study (Segment III), sprague dawley, Oral, Gavage/Intubation, dose end: 40 PND
[4] = systemic / pathology microscopic / blood / leukemia mononuclear + systemic / in life observation / body weight / body weight
[5] = systemic / pathology microscopic / liver / vacuolization cytoplasmic
[6] = systemic / pathology microscopic / liver / vacuolization cytoplasmic + systemic / in life observation / body weight / body weight
[7] = group: maternal, reproductive / reproductive performance / estrous cycle / corpora lutea
[8] = group: parental, systemic / organ weight / liver / absolute + systemic / organ weight / thyroid gland / absolute + systemic / pathology microscopic / ovary…
[9] = group: parental, systemic / organ weight / liver / absolute + systemic / pathology microscopic / ovary / follicle count + systemic / pathology microscopic / …

Structure (SMILES)	LOAEL (rat [1]; systemic / in life observation / body weight / body weight) [mg/kg/day]	NOAEL (rat [1]; systemic / in life observation / body weight / body weight + systemic / pathology microscopic / blood / leukemia mononuclear + systemic / …) [mg/kg/day]	LEL (rat [1]; [4]) [mg/kg/day]	NEL (rat [1]; [4]) [mg/kg/day]	LEL (mouse; [5]) [mg/kg/day]	NEL (mouse; [5]) [mg/kg/day]	LOAEL (mouse; [6]) [mg/kg/day]	NOAEL (mouse; [6]) [mg/kg/day]	LEL (rat [2]) [mg/kg/day]	LOAEL (rat [2]) [mg/kg/day]	NEL (rat [2]) [mg/kg/day]	NOAEL (rat [2]) [mg/kg/day]	LEL (rat [3]; [7]) [mg/kg/day]	LOAEL (rat [3]; [7]) [mg/kg/day]	NEL (rat [3]; [7]) [mg/kg/day]	NOAEL (rat [3]; [7]) [mg/kg/day]	LOAEL (rat [3]; [8]) [mg/kg/day]	NOAEL (rat [3]; [8]) [mg/kg/day]	LEL (rat [3]; [9]) [mg/kg/day]	NEL (rat [3]; [9]) [mg/kg/day]
C=CCN=C=S [Allyl isothiocyanate]	25	12	12	< 12	12	< 12	> 25	≥ 25												
CCCCOC(=O)c1ccc(O)cc1 [Butylparaben]									1000	> 1000	100	≥ 1000	62.5	> 1000	< 62.5	≥ 1000	> 1000	≥ 1000	62.5	< 62.5
